Experimental data from ChEMBL document CHEMBL4765484, “Development of Orally Efficacious Allosteric Inhibitors of TNFα via Fragment-Based Drug Design” (J Med Chem, 2021).
Converted amounts (≈) assume the structure as drawn. The source made the active and inactive calls. No cut-off for these calls is given here.

Experiments:
[1] = AUC (0 to 12 hrs) in DBA/J mouse model of CFA and glucose-6-phosphate isomerase-induced arthritis model at 100 mg/kg, po BID beginning 1 hr prior to GPI immunization and measured up to day 17 after GPI immunization by HPLC-MS/MS analysis; assay type: ADME, organism-based; set-up: route oral, dose 100 mg/kg, time 17 day; conditions: in vivo
[2] = (§1) Cmax in DBA/J mouse model of CFA and glucose-6-phosphate isomerase-induced arthritis model at 100 mg/kg, po BID beginning 1 hr prior to GPI immunization and measured up to day 17 after GPI immunization by HPLC-MS/MS analysis; assay type: ADME, organism-based; set-up: route oral, time 17 day, dose 100 mg/kg; conditions: in vivo
Tumor necrosis factor [3] = biological target: T1, Tumor necrosis factor (Homo sapiens, UniProt P01375)
Description: Binding affinity to biotinylated human TNFalpha trimer (77 to 233 residues) expressed in Escherichia coli BL21(DE3) by SPR analysis

[4] = (§2) Cmax in DBA/J mouse model of CFA and glucose-6-phosphate isomerase-induced arthritis model at 30 mg/kg, po BID beginning 1 hr prior to GPI immunization and measured up to day 17 after GPI immunization by HPLC-MS/MS analysis; assay type: ADME, organism-based; set-up: route oral, time 17 day, dose 30 mg/kg; conditions: in vivo
[5] = Tmax in CD1 mouse at 1 mg/kg, po after 24 hrs by HPLC-MS/MS analysis; assay type: ADME, organism-based; conditions: in vivo
[6] = Half life in CD1 mouse at 1 mg/kg, po after 24 hrs by HPLC-MS/MS analysis; assay type: ADME, organism-based; conditions: in vivo
[7] = (§3) Cmax in DBA/J mouse model of CFA and glucose-6-phosphate isomerase-induced arthritis model at 10 mg/kg, po BID beginning 1 hr prior to GPI immunization and measured up to day 17 after GPI immunization by HPLC-MS/MS analysis; assay type: ADME, organism-based; set-up: route oral, time 17 day, dose 10 mg/kg; conditions: in vivo
[8] = Volume of distribution at steady state in CD1 mouse at 1 mg/kg, iv after 24 hrs by HPLC-MS/MS analysis; assay type: ADME, organism-based; conditions: in vivo, read-out: Vdss
[9] = Unbound clearance in CD1 mouse at 1 mg/kg, iv after 24 hrs by HPLC-MS/MS analysis; assay type: ADME, organism-based; conditions: in vivo
[10] = AUC (0 to 12 hrs) in DBA/J mouse model of CFA and glucose-6-phosphate isomerase-induced arthritis model at 10 mg/kg, po BID beginning 1 hr prior to GPI immunization and measured up to day 17 after GPI immunization by HPLC-MS/MS analysis; assay type: ADME, organism-based; set-up: route oral, time 17 day, dose 10 mg/kg; conditions: in vivo
[11] = Unbound AUC in CD1 mouse at 1 mg/kg, po after 24 hrs by HPLC-MS/MS analysis; assay type: ADME, organism-based; conditions: in vivo
Tumor necrosis factor [12] = biological target: T1, Tumor necrosis factor; remark: listed apart in the source
Description: Inhibition of probe-5 binding to human TNFalpha (77 to 233 residues) at 1 nM by fluorescence polarization assay

Mus musculus = experiment: Antiarthritic activity in DBA/J mouse model of CFA and glucose-6-phosphate isomerase-induced arthritis model assessed as inhibition of paw swelling at 30 to 100 mg/kg, po BID beginning 1 hr prior to GPI immunization and measured on days 13, 15, and 17 after GPI immunization; assay type: functional, organism-based; conditions: dose 30-100 mg/kg, time 13-17 day
[13] = AUC in CD1 mouse at 1 mg/kg, iv after 24 hrs by HPLC-MS/MS analysis; assay type: ADME, organism-based; set-up: route intravenous, dose 1 mg/kg, time 24 hrs; conditions: in vivo
[14] = as §3, with “Selectivity index, ratio of Cmax” for “Cmax”, “analysis to EC50 for inhibition of TNFalpha in mouse L929 cells exposed to compound incubated for 1 hr with mouse TNFalpha by luminescence based assay” for “analysis”; conditions: time 17 day
Tumor necrosis factor [15] = biological target: T1, Tumor necrosis factor; remark: listed apart in the source
Description: Binding affinity to biotinylated human TNFalpha trimer (77 to 233 residues) expressed in Escherichia coli BL21(DE3) assessed as binding half life by SPR analysis

[16] = AUC in CD1 mouse at 1 mg/kg, po after 24 hrs by HPLC-MS/MS analysis; assay type: ADME, organism-based; set-up: route oral, time 24 hrs, dose 1 mg/kg; conditions: in vivo
[17] = Drug uptake in DBA/J mouse model of CFA and glucose-6-phosphate isomerase-induced arthritis model at 10 to 100 mg/kg, po BID beginning 1 hr prior to GPI immunization and measured up to day 17 after GPI immunization by HPLC-MS/MS analysis; assay type: ADME, organism-based; conditions: in vivo, 408 h, dose 10-100 mg/kg, time 17 day
[18] = AUC (0 to 12 hrs) in DBA/J mouse model of CFA and glucose-6-phosphate isomerase-induced arthritis model at 30 mg/kg, po BID beginning 1 hr prior to GPI immunization and measured up to day 17 after GPI immunization by HPLC-MS/MS analysis; assay type: ADME, organism-based; set-up: route oral, time 17 day, dose 30 mg/kg; conditions: in vivo
[19] = Oral bioavailability in CD1 mouse at 1 mg/kg after 24 hrs by HPLC-MS/MS analysis; assay type: ADME, organism-based; conditions: in vivo
[20] = as §1, with “Selectivity index, ratio of Cmax” for “Cmax”, “analysis to EC50 for inhibition of TNFalpha in mouse L929 cells exposed to compound incubated for 1 hr with mouse TNFalpha by luminescence based assay” for “analysis”
[21] = Half life in CD1 mouse at 1 mg/kg, iv after 24 hrs by HPLC-MS/MS analysis; assay type: ADME, organism-based; conditions: in vivo
[22] = Blood clearance in CD1 mouse at 1 mg/kg, iv after 24 hrs by HPLC-MS/MS analysis; assay type: ADME, organism-based
[23] = as §2, with “Selectivity index, ratio of Cmax” for “Cmax”, “analysis to EC50 for inhibition of TNFalpha in mouse L929 cells exposed to compound incubated for 1 hr with mouse TNFalpha by luminescence based assay” for “analysis”; conditions: time 17 day
[24] = Cmax in CD1 mouse at 1 mg/kg, po after 24 hrs by HPLC-MS/MS analysis; assay type: ADME, organism-based; set-up: route oral, dose 1 mg/kg, time 24 hrs; conditions: in vivo
Tumor necrosis factor [25] = biological target: T1, Tumor necrosis factor; remark: listed apart in the source
Description: Induction of stabilization of biotinylated human TNFalpha trimer (77 to 233 residues) expressed in Escherichia coli BL21(DE3) assessed as change in melting temperature

[26] = Solubility in phosphate buffer at pH 7.4; assay type: physicochemical
[27] = Fraction unbound in plasma (unknown origin); assay type: ADME, cell-free
[28] = Intrinsic clearance in human liver microsomes; assay type: ADME, Microsome; conditions: read-out: CLH (converted)
[29] = Intrinsic clearance in mouse liver microsomes; assay type: ADME, Microsome; conditions: read-out: CLH (converted)
Tumor necrosis factor [30] = biological target: T1, Tumor necrosis factor; conditions: dose 1.0 nM, TDE = time-dependent effect

T1 sequence (P01375 whole entry): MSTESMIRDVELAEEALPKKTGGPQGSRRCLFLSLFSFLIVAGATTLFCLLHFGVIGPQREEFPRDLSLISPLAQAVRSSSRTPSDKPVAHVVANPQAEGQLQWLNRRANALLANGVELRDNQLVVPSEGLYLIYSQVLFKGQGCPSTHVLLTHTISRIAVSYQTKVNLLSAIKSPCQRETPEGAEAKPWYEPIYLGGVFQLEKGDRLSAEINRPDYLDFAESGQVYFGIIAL

## CC1(C)C(=O)c2ccc(-c3cnc(N4CCN5C(=O)NC[C@@H]5C4)nc3)cc2N1Cc1cccnc1C#N
[1]
  AUC at 408 h: 46300 ng·h/mL
[2]
  Cmax: 6190 ng/mL
Tumor necrosis factor [3]
  Kd: 6.8 nM
[4]
  Cmax: 2980 ng/mL
[5]
  Tmax: 1 h
[6]
  half-life: 1.6 h
[7]
  Cmax: 767 ng/mL
[8]
  Vd: 2.12 L/kg
[9]
  CL free: 198 mL/min/kg
[10]
  AUC at 408 h: 3830 ng·h/mL
[11]
  fAUC: 42.4 ng·h/mL
Tumor necrosis factor [12]
  IC50: 71 nM
Mus musculus
  Activity: Active
[13]
  AUC at 24 h: 523 ng·h/mL
[14]
  Ratio: 2.1
Tumor necrosis factor [15]
  T1/2: 0.9 h
[16]
  AUC at 24 h: 263 ng·h/mL
[17]
  Drug uptake: Dose-dependent effect
[18]
  AUC at 408 h: 10200 ng·h/mL
[19]
  bioavailability: 50.4%
[20]
  Ratio: 17
[21]
  half-life: 1.1 h
[22]
  clearance: 32 mL/min/kg
[23]
  Ratio: 8.3
[24]
  Cmax: 81.7 ng/mL

## CN1CCN(Cc2ccc(-c3c[nH]c4ccncc34)c(OCCc3ccc(-c4cccc5ccncc45)cc3)c2)CC1
Tumor necrosis factor [3]
  Kd: 2.4 nM
Tumor necrosis factor [12]
  IC50: 29 nM
Tumor necrosis factor [25]
  ΔTm: > 15 °C

## N#CCc1ccc(-c2cccc3ccncc23)cc1
Tumor necrosis factor [3]
  Kd: 2700 nM
Tumor necrosis factor [12]
  IC50: 7960 nM
Tumor necrosis factor [25]
  ΔTm: 4 °C

## c1ccc(Cn2cnc3ccccc32)cc1
Tumor necrosis factor [3]
  Kd: 300000 nM
Tumor necrosis factor [12]
  IC50: 204000 nM

## C[C@@H]1CN(c2ncc(-c3ccc4c(c3)N(Cc3cccnc3C#N)C(C)(C)C4=O)cn2)CCN1C(=O)CO
Tumor necrosis factor [3]
  Kd: 7.3 nM
[5]
  Tmax: 1 h
[6]
  half-life: 2 h
[8]
  Vd: 17.3 L/kg
[9]
  CL free: 955 mL/min/kg
[26]
  solubility: 48.4 µM (≈ 24.8 µg/mL)
[11]
  fAUC: 9.6 ng·h/mL
Tumor necrosis factor [12]
  IC50: 163 nM
[13]
  AUC at 24 h: 124 ng·h/mL
Tumor necrosis factor [15]
  T1/2: 62.3 h
[16]
  AUC at 24 h: 62.7 ng·h/mL
[27]
  fraction unbound: 0.137
[19]
  bioavailability: 50.8%
[21]
  half-life: 1.4 h
[22]
  clearance: 146 mL/min/kg
[24]
  Cmax: 16.7 ng/mL

## C[C@@H]1CN(c2ncc(-c3ccc4c(c3)N(Cc3ccccc3OC(F)F)C(C)(C)C4=O)cn2)CCN1C(=O)CO
Tumor necrosis factor [3]
  Kd: 1.3 nM
[5]
  Tmax: 1.8 h
[6]
  half-life: 4.7 h
[8]
  Vd: 2.12 L/kg
[9]
  CL free: 2100 mL/min/kg
[26]
  solubility: 1.2 µM (≈ 0.662 µg/mL)
[11]
  fAUC: 6.86 ng·h/mL
Tumor necrosis factor [12]
  IC50: 189 nM
[13]
  AUC at 24 h: 3110 ng·h/mL
[28]
  CLint scaled: 2280 mL/min/kg
Tumor necrosis factor [15]
  T1/2: 42.8 h
[16]
  AUC at 24 h: 2340 ng·h/mL
[27]
  fraction unbound: 0.00293
[19]
  bioavailability: 75.4%
[29]
  CLint scaled: 1680 mL/min/kg
[21]
  half-life: 4.4 h
[22]
  clearance: 6.15 mL/min/kg
[24]
  Cmax: 200 ng/mL

## Cc1nc2ccccc2n1Cc1ccccc1
Tumor necrosis factor [3]
  Kd: 325000 nM

## Cc1ccc(Cn2cnc3ccccc32)c(C)c1
Tumor necrosis factor [3]
  Kd: 106000 nM

## O=C(NCCOCCOCCOCc1ccc(-c2cccc3ccncc23)c(OCCc2ccc(-c3cccc4ccncc34)cc2)c1)c1ccc2c(c1)C(=O)OC21c2cc(F)c(O)cc2Oc2cc(O)c(F)cc21
Tumor necrosis factor [30]
  Activity: Tde

## c1ccc(-c2cccc3ccncc23)cc1
Tumor necrosis factor [3]
  Kd: 60000 nM
Tumor necrosis factor [12]
  IC50: 25300 nM

## c1ccc(-c2cccc3ccncc23)c(OCCc2ccc(-c3cccc4ccncc34)cc2)c1
Tumor necrosis factor [3]
  Kd: 74 nM
Tumor necrosis factor [12]
  IC50: 1350 nM
Tumor necrosis factor [25]
  ΔTm: 7 °C
